“Also recorded” adds a separate entry of the source.
Legend:
[1] = Stability of Olanzapine Form I at stressed conditions (40° C./75% RH), HPLC purity, total impurity and colour (UV absorbance at 430 nm); assay type: physicochemical
[2] = cited from earlier work
[3] = Stability of Olanzapine Form I at stressed conditions (40° C./75% RH), HPLC purity, total impurity and colour (UV absorbance at 430 nm); assay type: physicochemical; conditions: for Absorbance at 430 nm Log I/Io: colour; for Stability under stressed conditions: stressed conditions (40° C.)
Method: The colour of Olanzapine is determined by following method:
Olanzapine 50 mg was dissolved in 50 ml 0.1 N HCl in methanol, which was diluted to prepare 100 μgm/ml, 200 μgm/ml, 500 μgm/ml of Olanzapine solution. […] Calibration curve was plotted between absorbance and concentration.
% of Colour=Amount of colour from calibration curve×100/Weight of sample taken.

Cc1cc2c(s1)Nc1ccccc1N=C2N1CCN(C)CC1 [Olanzapine Form I, 2-methyl-4-(4-methyl-1-piperazinyl)-10H-thieno[2,3-b][1,5]benzodiazepine]
Impurity Profile Chromatographic purity % ([1]; 30 DAYS/40° C./75% RH): 99.94% | Impurity Profile Total Imp. % age ([1]; 30 DAYS/40° C./75% RH): 0.06 % age | Absorbance at 430 nm Log I/Io ([1]; 30 DAYS/40° C./75% RH, colour): 0.402 | Impurity Profile Chromatographic purity % ([1]; 60 DAYS/40° C./75% RH): 99.96% | Impurity Profile Total Imp. % age ([1]; 60 DAYS/40° C./75% RH): 0.04 % age | Impurity Profile Chromatographic purity % ([1]; 120 DAYS/40° C./75% RH): 99.95% | Impurity Profile Total Imp. % age ([1]; 120 DAYS/40° C./75% RH): 0.05 % age | Impurity Profile Chromatographic purity % ([1]; 180 DAYS/40° C./75% RH): 99.93% | Impurity Profile Total Imp. % age ([1]; 180 DAYS/40° C./75% RH): 0.07 % age | Impurity Profile Chromatographic purity % ([1]; Initial): 99.97% | Impurity Profile Total Imp. % age ([1]; Initial): 0.03 % age | Stability / colour on standing ([2]; Form I crystallized from acetonitrile per U.S. Pat. No. 5,229,382, on standing): metastable and changes its color on standing | Stability at room temperature ([2]; Form I prepared from alcoholic solvent, U.S. Pat. No. 6,906,062, room temperature): stable form at room temperature | Absorbance at 430 nm Log I/Io ([3]; 60 DAYS/40° C./75% RH): 0.407 | Absorbance at 430 nm Log I/Io ([3]; 120 DAYS/40° C./75% RH): 0.4034 | Absorbance at 430 nm Log I/Io ([3]; 180 DAYS/40° C./75% RH): 0.4026 | Absorbance at 430 nm Log I/Io ([3]; Initial): 0.4 | Colour stability upon storage ([3]; high temperature (40° C.), high moisture or stress conditions): colour stable; also recorded: stable colour | Stability under stressed conditions ([3]; listed as Form I): highly stable | Stability under stressed conditions ([3]; listed as olanzapine): high stability

— patent publication US20100317849A1, “Process For Producing Pure And Stable Form Of 2-Methyl-4-(4-Methyl-1-Piperazinyl) -10H-Thieno[2,3-B] [1,5] Benzodiazepine” (priority 2006, published 2010)
